Laboratory results as given in article PMC7662226, “Discovery of Novel Indolealkylpiperazine Derivatives as Potent 5-HT1A Receptor Agonists for the Potential Future Treatment of Depression” (Molecules, 2020).
pEC50, pIC50: −log10 of the molar value. Blank lines part the entries; values can stand above or below the compound they belong to.

What was measured:
Format in all cases: cell-based
human 5-HT1AR = target: T1, human 5-HT1AR (Homo sapiens, UniProt P08908); assay: Ultra Lance cAMP assay, 5-HT1AR; settings: agonistic functional activity, human 5-HT1AR expressed by HEK-293 cells; NA: no activity
T1 construct: expressed in transfected cells; host or cells: HEK-293
T1 sequence (P08908 1-422): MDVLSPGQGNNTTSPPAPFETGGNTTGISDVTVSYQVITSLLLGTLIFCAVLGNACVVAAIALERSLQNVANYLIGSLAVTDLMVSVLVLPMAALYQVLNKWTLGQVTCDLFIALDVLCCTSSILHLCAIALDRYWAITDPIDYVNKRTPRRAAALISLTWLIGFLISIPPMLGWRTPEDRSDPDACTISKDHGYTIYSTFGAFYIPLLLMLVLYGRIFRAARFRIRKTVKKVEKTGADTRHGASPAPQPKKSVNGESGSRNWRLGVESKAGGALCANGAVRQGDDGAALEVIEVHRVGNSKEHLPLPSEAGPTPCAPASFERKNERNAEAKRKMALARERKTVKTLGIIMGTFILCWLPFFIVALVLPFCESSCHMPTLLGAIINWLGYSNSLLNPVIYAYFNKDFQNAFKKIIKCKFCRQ
Experimental: (§1) 1.2 Biological Evaluation
(§2) 1.2.1. Ultra Lance cAMP assay
(§3) The Ultra Lance cAMP assay was performed to evaluate the function of synthesized compounds to D2R and 5-HT1AR with human D2R and 5-HT1AR expressed by HEK-293 cells.
(§4) […] The IC50 values were calculated by nonlinear regression using a sigmoidal function.

human 5-HT2AR = target: T2, human 5-HT2AR (Homo sapiens, UniProt P28223); assay: Fluorometric Imaging Plate Reader (FLIPR) assay, 5-HT2AR; settings: functional activity, calcium flux, human 5-HT2AR expressed by CHO-K1 cells; NA: no activity
T2 construct: expressed in transfected cells; host or cells: CHO-K1
Experimental: 1.2.2. Fluorometric Imaging Plate Reader (FLIPR) assay
The FLIPR assay was performed to evaluate the function of synthesized compounds to 5-HT2AR with human 5-HT2AR expressed by CHO-K1 cells. Reference compound for 5-HT2AR was […]
[…] After 15 min add 22.5 µl /well of inducer and calcium flux signal is measured. The IC50 values were calculated by nonlinear regression using a sigmoidal function.

human D2R = target: T3, human D2R (Homo sapiens, UniProt P14416); assay: Ultra Lance cAMP assay, D2R; settings: functional activity, human D2R expressed by HEK-293 cells; NA: no activity
T3 construct: expressed in transfected cells; host or cells: HEK-293
Experimental: as §1, §2, §3, §4

T2 sequence (P28223 whole entry): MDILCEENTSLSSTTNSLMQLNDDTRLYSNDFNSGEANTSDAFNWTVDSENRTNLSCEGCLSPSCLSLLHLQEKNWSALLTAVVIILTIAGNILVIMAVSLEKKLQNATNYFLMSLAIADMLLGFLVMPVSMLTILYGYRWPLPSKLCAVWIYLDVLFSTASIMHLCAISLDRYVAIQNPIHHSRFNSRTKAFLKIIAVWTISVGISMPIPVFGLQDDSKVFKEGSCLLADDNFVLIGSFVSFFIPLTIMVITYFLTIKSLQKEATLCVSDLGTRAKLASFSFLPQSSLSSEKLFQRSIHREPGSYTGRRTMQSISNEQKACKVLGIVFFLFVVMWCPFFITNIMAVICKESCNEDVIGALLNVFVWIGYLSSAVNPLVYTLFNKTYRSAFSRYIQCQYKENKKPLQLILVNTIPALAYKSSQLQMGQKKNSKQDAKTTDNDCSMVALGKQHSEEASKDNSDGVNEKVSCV
T3 sequence (P14416 whole entry): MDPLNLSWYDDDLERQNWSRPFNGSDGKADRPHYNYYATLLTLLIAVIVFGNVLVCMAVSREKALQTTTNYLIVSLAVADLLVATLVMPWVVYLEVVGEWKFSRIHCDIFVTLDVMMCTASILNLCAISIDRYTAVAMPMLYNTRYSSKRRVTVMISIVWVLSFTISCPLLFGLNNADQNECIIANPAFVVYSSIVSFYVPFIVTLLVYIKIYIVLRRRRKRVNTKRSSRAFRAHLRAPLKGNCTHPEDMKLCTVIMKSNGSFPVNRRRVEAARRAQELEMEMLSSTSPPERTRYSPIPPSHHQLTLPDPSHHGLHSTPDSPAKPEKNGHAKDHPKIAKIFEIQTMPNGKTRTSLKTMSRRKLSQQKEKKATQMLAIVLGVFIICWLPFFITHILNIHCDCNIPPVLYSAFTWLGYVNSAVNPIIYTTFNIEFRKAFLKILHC

SMILES: CS(=O)(=O)c1ccc(F)c(C(=O)N2CCN(CCCc3c[nH]c4ccc(C#N)cc34)CC2)c1 [Compound 13a]
pEC50 (human 5-HT1AR): 6.78
pIC50 (human 5-HT2AR): < 5.30

pEC50 (human 5-HT1AR): 6.00
SMILES: CS(=O)(=O)c1ccc(N2CCOCC2)c(C(=O)N2CCN(CCCc3c[nH]c4ccc(C#N)cc34)CC2)c1 [Compound 13b]

SMILES: CC(Oc1ccc(S(C)(=O)=O)cc1C(=O)N1CCN(CCCc2c[nH]c3ccc(C#N)cc23)CC1)C(F)(F)F (centres unmarked) [Compound 13c]
pEC50 (human 5-HT1AR): 6.71
pIC50 (human 5-HT2AR): 5.94

SMILES: CS(=O)(=O)c1ccc(OCC2CC2)c(C(=O)N2CCN(CCCc3c[nH]c4ccc(C#N)cc34)CC2)c1 [Compound 13d]
pEC50 (human 5-HT1AR): 7.06
pIC50 (human 5-HT2AR): 6.05

SMILES: CCS(=O)(=O)c1ccc(OCC2CC2)c(C(=O)N2CCN(CCCc3c[nH]c4ccc(C#N)cc34)CC2)c1 [Compound 13e]
pIC50 (human D2R): < 5.30
pEC50 (human 5-HT1AR): 7.31
pIC50 (human 5-HT2AR): 5.89

SMILES: CNS(=O)(=O)c1ccc(OCC2CC2)c(C(=O)N2CCN(CCCc3c[nH]c4ccc(C#N)cc34)CC2)c1 [Compound 13f]
pEC50 (human 5-HT1AR): 7.63
pIC50 (human 5-HT2AR): 5.96

SMILES: N#Cc1ccc2[nH]cc(CCCN3CCN(C(=O)c4cc(S(=O)(=O)NCC5CC5)ccc4OCC4CC4)CC3)c2c1 [Compound 13g]
pIC50 (human D2R): 5.37
pEC50 (human 5-HT1AR): 8.27
pIC50 (human 5-HT2AR): 5.64

SMILES: CNS(=O)(=O)c1ccc(OCC(C)C)c(C(=O)N2CCN(CCCc3c[nH]c4ccc(C#N)cc34)CC2)c1 [Compound 13h]
pEC50 (human 5-HT1AR): 8.25
pIC50 (human 5-HT2AR): 6.25

SMILES: CNS(=O)(=O)c1ccc(OCC2COC2)c(C(=O)N2CCN(CCCc3c[nH]c4ccc(C#N)cc34)CC2)c1 [Compound 13i]
pEC50 (human 5-HT1AR): 6.40
pIC50 (human 5-HT2AR): 5.38

5-HT1AR EC50 (human 5-HT1AR): completely lose activity
SMILES: CNS(=O)(=O)c1ccc(OC(C)C)c(C(=O)N2CCN(CCCc3c[nH]c4ccc(C#N)cc34)CC2)c1 [Compound 13j]

SMILES: CCOc1ccc(S(=O)(=O)NC)cc1C(=O)N1CCN(CCCc2c[nH]c3ccc(C#N)cc23)CC1 [Compound 13k]
pEC50 (human 5-HT1AR): 7.11
pIC50 (human 5-HT2AR): 5.75

pEC50 (human 5-HT1AR): 6.28
SMILES: CNS(=O)(=O)c1ccc(OC2COC2)c(C(=O)N2CCN(CCCc3c[nH]c4ccc(C#N)cc34)CC2)c1 [Compound 13l]

SMILES: CC(C)COc1ccc(S(=O)(=O)NCC2CC2)cc1C(=O)N1CCN(CCCc2c[nH]c3ccc(C#N)cc23)CC1 [Compound 13m]
pIC50 (human D2R): < 5.30
pEC50 (human 5-HT1AR): 9.00
pIC50 (human 5-HT2AR): 5.82

SMILES: N#Cc1ccc2[nH]cc(CCCN3CCN(C(=O)c4cc(S(=O)(=O)NCC5CC5)ccc4OCC4COC4)CC3)c2c1 [Compound 13n]
pEC50 (human 5-HT1AR): 7.50
pIC50 (human 5-HT2AR): < 5.30

pEC50 (human 5-HT1AR): 7.64
SMILES: CC(C)Oc1ccc(S(=O)(=O)NCC2CC2)cc1C(=O)N1CCN(CCCc2c[nH]c3ccc(C#N)cc23)CC1 [Compound 13o, 3-(4-(3-(5-cyano-1H-indol-3-yl)propyl)piperazine-1-carbonyl)-N-(cyclopropylmethyl)-4-isopropoxybenzenesulfonamide]

SMILES: CCOc1ccc(S(=O)(=O)NCC2CC2)cc1C(=O)N1CCN(CCCc2c[nH]c3ccc(C#N)cc23)CC1 [Compound 13p, 3-(4-(3-(5-cyano-1H-indol-3-yl)propyl)piperazine-1-carbonyl)-N-(cyclopropylmethyl)-4-ethoxybenzenesulfonamide]
pEC50 (human 5-HT1AR): 7.32
pIC50 (human 5-HT2AR): 5.33

pEC50 (human 5-HT1AR): 6.76
SMILES: N#Cc1ccc2[nH]cc(CCCN3CCN(C(=O)c4cc(S(=O)(=O)NCC5CC5)ccc4OC4COC4)CC3)c2c1 [Compound 13q, 3-(4-(3-(5-cyano-1H-indol-3-yl)propyl)piperazine-1-carbonyl)-N-(cyclopropylmethyl)-4-(oxetan-3-yloxy)benzenesulfonamide]
